# Data: ChEMBL document CHEMBL2396625 (Bioorg Med Chem Lett, 2013)
# Active and inactive are the calls of the source. No cut-off for these calls is given here.
# Legend:
# [1] = test system: DLD-1; assay: Antimigratory activity against human DLD1 cells overexpressing PRL3 at 10 uM after 20 hrs by crystal violet staining-based light microscopic analysis; format: functional, cell-based
# [2] = test system: DLD-1; assay: Antimigratory activity against human DLD1 cells overexpressing PRL3 by crystal violet staining-based light microscopic analysis; format: functional, cell-based
# [3] = test system: MDA-MB-231; assay: Antimigratory activity against human MDA-MB-231 cells expressing low level of PRL3 at 10 to 20 uM after 20 hrs by crystal violet staining-based light microscopic analysis; format: functional, cell-based
# [4] = test system: DLD-1; assay: Antiinvasive activity against human DLD1 cells overexpressing PRL3 at 20 uM after 20 hrs by crystal violet staining-based light microscopic analysis relative to control; format: functional; conditions: DLD-1, 20 h
# [5] = target: T1, Tyrosine-protein phosphatase non-receptor type 1 (Homo sapiens) (UniProt P18031); assay: Inhibition of PTP1B (unknown origin) using DiFMUP as substrate at 5 uM relative to control
# T1 sequence (whole entry): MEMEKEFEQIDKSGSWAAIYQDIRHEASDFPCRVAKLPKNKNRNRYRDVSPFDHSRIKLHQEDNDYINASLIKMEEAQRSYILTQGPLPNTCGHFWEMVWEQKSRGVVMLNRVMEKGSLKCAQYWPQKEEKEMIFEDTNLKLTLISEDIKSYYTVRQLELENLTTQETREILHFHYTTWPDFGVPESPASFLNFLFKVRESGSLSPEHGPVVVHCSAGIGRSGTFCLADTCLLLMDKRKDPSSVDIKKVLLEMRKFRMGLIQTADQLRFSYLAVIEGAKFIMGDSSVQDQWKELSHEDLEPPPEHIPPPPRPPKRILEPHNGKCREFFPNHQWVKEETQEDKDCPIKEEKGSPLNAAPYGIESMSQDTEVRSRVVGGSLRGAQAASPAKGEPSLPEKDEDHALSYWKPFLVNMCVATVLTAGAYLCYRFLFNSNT
# [6] = test system: MIA PaCa-2; assay: Antimigratory activity against human MIAPaCa2 cells overexpressing PRL3 at 10 to 20 uM after 20 hrs by crystal violet staining-based light microscopic analysis; format: functional, cell-based
# [7] = test system: DLD-1; assay: Antimigratory activity against human DLD1 cells overexpressing PRL3 at 20 uM after 20 hrs by crystal violet staining-based light microscopic analysis relative to control; format: functional; conditions: DLD-1, 20 h
# [8] = target: Tyrosine-protein phosphatase YopH (Yersinia enterocolitica) (UniProt P15273); assay: Inhibition of yopH (unknown origin) using DiFMUP as substrate at 5 uM relative to control
# [9] = test system: A375P; assay: Antimigratory activity against human A375P cells overexpressing PRL3 at 10 to 20 uM after 20 hrs by crystal violet staining-based light microscopic analysis; format: functional, cell-based
# [10] = species: Homo sapiens; assay: Inhibition of PP2A (unknown origin) using DiFMUP as substrate at 5 uM relative to control
# [11] = test system: DLD-1; assay: Antimigratory activity against human DLD1 cells overexpressing PRL3 at 10 ug/ml after 20 hrs by crystal violet staining-based light microscopic analysis relative to control; format: functional; conditions: DLD-1, 20 h
# [12] = test system: DLD-1; assay: Cytotoxicity against human DLD1 cells overexpressing PRL3 assessed as growth inhibition at 50 uM after 24 hrs by WST-1 assay; format: cell-based; conditions: dld-1, 24 h
# [13] = target: T2, Dual specificity protein phosphatase 22 (Homo sapiens) (UniProt Q9NRW4); assay: Inhibition of DUSP22 (unknown origin) using DiFMUP as substrate at 5 uM relative to control
# T2 sequence (whole entry): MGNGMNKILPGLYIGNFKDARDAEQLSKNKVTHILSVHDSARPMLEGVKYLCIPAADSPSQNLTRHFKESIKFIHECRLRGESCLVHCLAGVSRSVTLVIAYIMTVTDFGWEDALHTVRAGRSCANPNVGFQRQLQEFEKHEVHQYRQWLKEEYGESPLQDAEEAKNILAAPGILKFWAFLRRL
# [14] = target: T3, Dual specificity protein phosphatase 10 (Homo sapiens) (UniProt Q9Y6W6); assay: Inhibition of MKP5 (unknown origin) using DiFMUP as substrate at 5 uM relative to control
# T3 sequence (whole entry): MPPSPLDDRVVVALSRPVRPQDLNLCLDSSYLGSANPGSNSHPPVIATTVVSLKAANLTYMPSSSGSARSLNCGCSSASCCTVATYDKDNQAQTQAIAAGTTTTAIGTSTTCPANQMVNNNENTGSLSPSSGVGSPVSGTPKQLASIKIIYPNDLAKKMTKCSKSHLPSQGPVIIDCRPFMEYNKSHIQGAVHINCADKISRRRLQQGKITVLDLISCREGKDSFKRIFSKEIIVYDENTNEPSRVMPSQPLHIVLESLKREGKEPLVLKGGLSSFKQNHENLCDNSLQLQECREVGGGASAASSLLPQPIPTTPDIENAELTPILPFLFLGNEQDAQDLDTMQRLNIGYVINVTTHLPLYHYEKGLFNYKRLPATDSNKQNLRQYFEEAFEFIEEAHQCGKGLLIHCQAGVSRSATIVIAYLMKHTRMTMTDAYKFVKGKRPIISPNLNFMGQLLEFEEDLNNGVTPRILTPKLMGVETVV
IC50 [2],inhibition [5],inhibition [8],inhibition [10],inhibition [13],inhibition [14],SMILES,Activity [1],inhibition [2],Activity [3],inhibition at 20 µM [4],Activity [6],inhibition at 20 µM [7],Activity [9],inhibition at 10 µg/mL [11],Activity [12]
7 µM,11%,14%,0%,30%,5%,O=C1NC(=S)S/C1=C\c1cc(Br)ccc1OCc1ccccc1Br,Active,Dose-dependent effect,inactive,> 60%,Active,> 90%,Active,95%,Non-toxic
5 µM,8%,9%,29%,10%,1%,COc1ccccc1COc1ccccc1/C=C/C=C1\SC(=S)NC1=O,Active,Dose-dependent effect,inactive,> 60%,Active,> 90%,Active,98%,Non-toxic
